Here are results for 3 compounds from US5750648A, “Retroviral protease inhibitors and combinations thereof” (G.D. Searle & Co., priority 1994, dated 1998).

In one data set the test system is HIV-1 in CEM cells. Nature of the data set: CEM cell assay, HIV inhibition in acutely infected cells (MTT). The data set is classed as cell-based. As to conditions: Human immunodeficiency virus 1, CCRF-CEM, 168 h; HIV-1 infected CEM cells, 7 days. On the procedure: The effectiveness of selected compounds of the present invention were determined in the above-described enzyme assay and in a CEM cell assay. The HIV inhibition assay method of acutely infected cells is an automated tetrazolium based calorimetric assay essentially that reported by Pauwles et al, J. Virol. Methods 20, 309-321 (1988). Assays were performed in 96-well tissue culture plates. CEM cells, a CD4+ cell line, were grown in RPMI-1640 medium (Gibco) supplemented with a 10% fetal calf serum and were then treated with polybrene (2 μg/ml). An 80 μl volume of medium containing 1×10^4 cells was dispensed into each well of the tissue culture plate. To each well was added a 100 μl volume of test compound dissolved in tissue culture medium (or medium without test compound as a control) to achieve the desired final concentration and the cells were incubated at 37° C. for 1 hour. A frozen culture of HIV-1 was diluted in culture medium to a concentration of […] (TCID50=the dose of virus that infects 50% of cells in tissue culture), and a 20 μL volume of the virus sample (containing 1000 TCID50 of virus) was added to wells containing test compound and to wells containing only medium (infected control cells). Several wells received culture medium without virus (uninfected control cells). Likewise, the intrinsic toxicity of the test compound was determined by adding medium without virus to several wells containing test compound. In summary, the tissue culture plates contained the following experiments: In experiments 2 and 4 the final concentrations of test compounds were 1, 10, 100 and 500 μg/ml. Either azidothymidine (AZT) or dideoxyinosine (ddI) was included as a positive drug control. […] DMSO was added to all control wells at an appropriate concentration. Following the addition of virus, cells were incubated at 37° C. in a humidified, 5% CO2 atmosphere for 7 days. Test compounds could be added on days 0, 2 and 5 if desired. On day 7, post-infection, the cells in each well were resuspended and a 100 μl sample of each cell suspension was removed for assay. A 20 μL volume of a 5 mg/ml solution of 3-(4,5-dimethylthiazol-2-yl)-2,5-diphenyltetrazolium bromide (MTT) was added to each 100 μL cell suspension, and the cells were incubated for 4 hours at […] in a 5% CO2 environment. […] To each sample was added 100 μl of 10% sodium dodecylsulfate in 0.01N HCl to lyse the cells, and samples were incubated overnight. The absorbance at 590 nm was determined for each sample using a Molecular Devices microplate reader. Absorbance values for each set of wells is compared to assess viral control infection, uninfected control cell response as well as test compound by cytotoxicity and antiviral efficacy.

A further data set deals with HIV protease (Human immunodeficiency virus type 1 group M subtype B, UniProt P04585). Nature of the data set: HIV protease enzyme assay (fluorescent substrate 2-aminobenzoyl-Ile-Nle-Phe(p-NO2)-Gln-ArgNH2). The data set is classed as biochemical. As to conditions: concentration at which the inhibitor reduces enzyme activity by 50%; enzyme about 12.3 nanomolar, substrate about 80 μM, pH 6.4. An excerpt: The compounds of the present invention are advantageously effective HIV protease inhibitors. Utilizing an enzyme assay as described below, the compounds set forth in the examples herein disclosed inhibited the HIV enzyme. The preferred compounds of the present invention and their calculated IC50 (the concentration at which the inhibitor compound reduces enzyme activity by 50%) values are shown in Table 2.
The enzyme method is as follows. The substrate is 2-aminobenzoyl-Ile-Nle-Phe(p-NO2)-Gln-ArgNH2. The positive control is MVT-101 (Miller, M. et al, Science, 246, 1149 (1989)). The assay buffer is 20 mM sodium phosphate, pH 6.4, 20% glycerol, 1 mM EDTA, 1 mM DTT and 0.1% CHAPS. The substrate is dissolved in DMSO, then diluted 10 fold in assay buffer. Final substrate concentration in the assay is about 80 μM. HIV protease is diluted in the assay buffer to a final enzyme concentration of about 12.3 nanomolar, based on a molecular weight of 10,780.
The final concentration of DMSO is about 14% and the final concentration of glycerol is about 18%. The test compound is dissolved in DMSO and diluted in DMSO to ten times (10×) the test concentration. Ten microliters (10 μL) of the enzyme preparation is added, the materials mixed and then the mixture is incubated at ambient temperature for 15 minutes. The enzyme reaction is initiated by the addition of 40 μL of substrate. The increase in fluorescence is monitored at 4 time points (0, 8, 16 and 24 minutes) at ambient temperature. Each assay is carried out in duplicate wells.

Data set [1] in a line: Identification of metabolite in blood of male rats after oral administration (LC-MS). The data set is classed as in vivo, rat. As to conditions: male rats (n=5), in 0.5% methylcellulose and 0.1% polysorbate 80, blood at 0.25-4 hours. On the procedure: Butaneamide, 2-[(N,N-dimethylaminoacetyl)amino]-N-[3-[[[(1,1-dimethylethyl)amino]carbonyl](3-methylbutyl)amino]-2-hydroxy-1-(phenylmethyl)propyl]-3,3-dimethyl-, [1S-[1R*(R*), 2S*]]-, as prepared in Example 1 herein, is administered to male rats (n=5) orally in water containing 0.5% methylcellulose and 0.1% polysorbate 80 in a total volume of 5 to 7 mL per kilogram. Blood samples are collected at 0.25, 0.50, 1, 2 and 4 hours. The samples for each time-point are pooled and extracted onto a 100 mg C18 solid phase extraction column (SPEC) after prior treatment with methanol to denature plasma proteins. The extract is purified by washing the SPEC with water and collected after the addition of 1% formic acid in methanol to the SPEC. Concentration of the extract is achieved by evaporation and resolubilization in a small volume of water:acetonitrile (3:1, v/v). The resolubilized extract is filtered through a 0.2μ filter and injected onto a liquid chromatograph coupled to a mass spectrometer, using a VG Trio 2 Mass Spectrometer, by means of a thermospray interface. The chromatographic separation is produced by use of a 10 cm (2×5 cm) YMC Basic column with a mobile phase of water:acetonitrile:pyridine:formic acid (545:440:10:5, by volume).

For another data set, the system named is CEM cells. In kind it is cell-based. On the set-up: unit not given beside the values. On the procedure:
The HIV inhibition assay method of acutely infected cells is an automated tetrazolium based calorimetric assay essentially that reported by Pauwles et al, J. Virol. Methods 20, 309-321 (1988). Assays were performed in 96-well tissue culture plates. CEM cells, a CD4+ cell line, were grown in RPMI-1640 medium (Gibco) supplemented with a 10% fetal calf serum and were then treated with polybrene (2 μg/ml). An 80 μl volume of medium containing 1×10^4 cells was dispensed into each well of the tissue culture plate. To each well was added a 100 μl volume of test compound dissolved in tissue culture medium (or medium without test compound as a control) to achieve the desired final concentration and the cells were incubated at 37° C. for 1 hour. A frozen culture of HIV-1 was diluted in culture medium to a concentration of 5×104 TCID50 per ml (TCID50=the dose of virus that infects 50% of cells in tissue culture), and a 20 μL volume of the virus sample (containing 1000 TCID50 of virus) was added to wells containing test compound and to wells containing only medium (infected control cells). Several wells received culture medium without virus (uninfected control cells). Likewise, the intrinsic toxicity of the test compound was determined by adding medium without virus to several wells containing test compound. In summary, the tissue culture plates contained the following experiments: In experiments 2 and 4 the final concentrations of test compounds were 1, 10, 100 and 500 μg/ml. Either azidothymidine (AZT) or dideoxyinosine (ddI) was included as a positive drug control. […] DMSO was added to all control wells at an appropriate concentration. Following the addition of virus, cells were incubated at 37° C. in a humidified, 5% CO2 atmosphere for 7 days. Test compounds could be added on days 0, 2 and 5 if desired. […] The absorbance at 590 nm was determined for each sample using a Molecular Devices microplate reader. Absorbance values for each set of wells is compared to assess viral control infection, uninfected control cell response as well as test compound by cytotoxicity and antiviral efficacy.

Broadly, the EC50 is the concentration giving half of the maximal effect. For orientation: IC50 means the concentration that inhibits the measured activity by half. In the data set with HIV-1 in CEM cells, `CC(C)CCN(C[C@@H](O)[C@H](Cc1ccccc1)NC(=O)[C@@H](NC(=O)CN(C)C)C(C)(C)C)C(=O)NC(C)(C)C` [Example 1, Butaneamide, 2-[(N,N-dimethylaminoacetyl)amino]-N-[3-[[[(1,1-dimethylethyl)amino]carbonyl](3-methylbutyl)amino]-2-hydroxy-1-(phenylmethyl)propyl]-3,3-dimethyl-,[1S-[1R*(R*), 2S*]]-] displayed an EC50 of 58 nM. The compound further registered an IC50 against HIV protease of 10 nM. The “metabolite found in blood extract compared with synthesized metabolite standard” value in data set [1] is “corresponding spectra and chromatogram from a standard of the synthesized metabolite can be favorably compared”. Moreover, the TD50 with CEM cells is 45,000.
Compound `CNCC(=O)N[C@H](C(=O)N[C@@H](Cc1ccccc1)[C@H](O)CN(CCC(C)C)C(=O)NC(C)(C)C)C(C)(C)C` [Example 2, (2R, 3S)-3(N-methylaminoacetyl-L-tert-butylglycinyl) amino-2-hydroxy-4-phenyl-1-[N-(3-methylbutyl)-N-[(1,1-dimethylethyl)amino]carbonyl]aminobutane] had an EC50 in the data set with HIV-1 in CEM cells of 22 nM. The midpoint of inhibition on HIV protease, the IC50, lay at 6 nM. In addition, in the data set with CEM cells, the TD50 is on record as 45,000.
The matching figures for `CC[C@H](C)[C@H](NC(=O)CNC)C(=O)N[C@@H](Cc1ccccc1)[C@H](O)CN(CCC(C)C)C(=O)NC(C)(C)C` [Example 4, (2R,3S)-3-(N-methylaminoacetyl-L-isoleucinyl) amido-1-[N-isoamyl-N-(tert-butylcarbamoyl)]amino-4-phenyl-2-butanol]: 91 nM, 13 nM and 55,000.
